Series [1] has as its system MM.1S (human multiple myeloma cell). Kind of series: In vitro activity test (CCK-8 cell growth inhibition). It counts as cell-based. The conditions noted are these: MM1.S, 48 hours incubation, read-out: MM.IS cell GI50 (μM) value. The method, then:
(§1) Cells RPMI-8226 (human multiple myeloma cell) and MM.1S (human multiple myeloma cell) were cultured in a RPMI 1640 medium containing 10% fetal bovine serum at 37[…] under 5% CO2 to a logarithmic growth phase. The cells were respectively inoculated into a 96-well culture plate in a quantity of 3×10^4/well. After culturing for 24 hours at 37[…] under 5% CO2, a solvent control DMSO (dimethyl sulfoxide) or a tested compound (the tested compound taken 0.3 μM as an initial concentration, was diluted 3 times each time, and was diluted 5 times in total to obtain 6 concentration gradients) dissolved in the DMSO was added into the cells. The tested compound was incubated with the cells for 48 hours at 37[…] under 5% CO2. A CCK-8 reagent was added into each well, and incubated at 37 °C for 2 hours according to a reagent specification, and an optical density value of each well was read at a wavelength of 450 nm using a spectrophotometer.
(§2) An optical density value of the cells when the medicine acted for 0 hour was set as a Tz value, which represented a value of the cells when the medicine was added. The optical density value of the cells when the solvent control DMSO acted for 48 hours was set as a C value; and the optical density value of the cells when the tested compound acted for 48 hours was set as a Ti value. According to a method proposed by the NIH-NCI (National Institutes of Health-National Cancer Institute) of the United States, a response of the cells to a medicine was calculated: when Ti≥Tz, the response was [(Ti−Tz)/(C−Tz)]×100; and when Ti<Tz, the response was [(Ti−Tz)/Tz]×100. According to the calculation above, a GI50 value (a concentration of the tested compound required when a cell growth inhibition rate was 50%) was calculated by the 4 Parameter Logistic Model in the XLfit software.

In series [2] the test system is RPMI-8226 (human multiple myeloma cell). The series is described as above. Format: cell-based. The conditions noted are these: 48 hours incubation. The method, then: as §1, §2
A short description of series [3]: High-temperature and high-humidity accelerated stability test. It counts as physicochemical. The conditions noted are these: compared with compounds 8l, MLN9708, MLN2238 of the prior art. The text has this:
In addition, the compound of the present invention has better stability.

The subject of the next series is SD rats. From the text:
The test was a single-dose toxicity test of SD rats by intragastric administration through mouth.

In another series the target is hERG potassium channel (Homo sapiens, UniProt Q12809). Kind of series: Inhibition test of hERG potassium channel of heart (patch clamp). It counts as cell-based. The note with it: for inhibitory effect on the hERG potassium channel (judged by general standard): judged by the standard of b169; for IC50: patch clamp; for IC50 / hERG current inhibition ratio %: n 3. The text has this:
An inhibitory effect of the tested compound on hERG was judged by a general standard (Roche O. et al. ChemBioChem. 2002, 3:455-459.):
When a hERG semi-inhibitory concentration of a medicine exceeded about 30 times of a peak concentration thereof in blood, the concentration was in a relatively safe range (Redfernelt al, Cardiovascular Research, 58, 32-45 (2003)).

Series [4] concerns MM.1S human multiple myeloma SCID mouse transplanted tumor. As to the kind of experiment: Pharmacodynamic test, SCID mouse transplanted tumor model. Format: in vivo. The conditions noted are these: 0.0166 mmol/kg intragastric. On the procedure: In the experiment, a SCID mouse transplanted tumor model of a human multiple myeloma cell line MM.1S was used. Specific modeling steps were as follows: frozen MM.1S cells were resuscitated and cultured in vitro according to a routine, and the cells were collected in a logarithmic growth phase, and diluted with PBS to form a tumor cell suspension with a concentration of 5×10^7/ml. […] About 1 week to 2 weeks after injection, the mass was palpable in axillary, and in vivo passage was performed when a tumor volume was larger than 500 mm^3. After the mouse was killed by a neck pulling method, a body surface was disinfected, skin was cut open, aseptic operation was performed, a tumor tissue was peeled off from an axillary subcutaneous tissue, a fibrous capsule was removed, and the tumor was taken out. The tumor was washed clean in normal saline, and then cut, and after removing the central necrotic part, the tumor tissue with good growth, reddish color and fish flesh shape was selected, then was cut into 1 mm×1 mm×1 mm small pieces, and placed in normal saline for later use. The cut tumor was placed in a mouth of a No. 18 trocar, iodized cotton was used to disinfect the side of the armpit close to the back of the mouse, and local inoculation was performed. The transplanted tumor used in the test was the 4th generation of in vivo passage. When the tumor volume of most SCID mice of in vivo passage was larger than 100 mm^3, the tumor volume was measured and calculated, and the mice were randomly grouped according to the tumor volume.
The administration mode was intragastric administration through mouth, with an administration volume of 10 ml/kg. The model control group was given the same volume of solvent intragastrically. The mice were all intragastrically administrated through mouth twice a week for a total of 5 times, i.e., the mice were administrated at the 1st, 5th, 8th, 12th and 15th days of the experiment, with a duration of 18 days.
Doses of different tested samples were equimolar, with a specific dose of 0.0166 mmol/kg; and the model control group was only given normal saline. The medicines were 8b and 8l, as well as Ixazomib Citrate (MLN9708) and Ixazomib (MLN2238).
On the 5th, 8th, 12th, 15th and 18th days after administration, a short diameter (a) and a long diameter (b) of the tumor of each mouse were measured with a vernier caliper, and the tumor volume was calculated according to a formula (a^2×b)/2. A relative tumor volume (RTV) was calculated based on the tumor volume measured and calculated, RTV=Vt/V0. V0 was the tumor volume at random grouping (i.e., d0) and Vt was the tumor volume at each measurement (i.e., dn). A relative tumor proliferation rate of an anti-tumor activity evaluation index was calculated according to the following formula: relative tumor proliferation rate T/C (%): […]
(Note: TRTV was a RTV of the treatment group; and CRTV was a RTV of the model control group. An evaluation standard of a curative effect was T/C %≤40%, and the medicine was effective when P<0.05 after statistical treatment).
After weighing and measuring the tumor on the 18th day, all animals were sacrificed, and the tumor was taken and weighed.

Where [5] appears, read: dose 2, 0.001662 mmol/kg single intragastric dose, 6 female rats, 14 days observation.
Setting [6] is: dose 2, 0.001662 mmol/kg single intragastric dose, 6 male rats, 14 days observation.
Where [7] appears, read: dose 4, 0.00277 mmol/kg single intragastric dose, 6 female rats, 14 days observation.
Setting [8] is: dose 4, 0.00277 mmol/kg single intragastric dose, 6 male rats, 14 days observation.

Like-named read-outs stand apart in the source and are kept apart here.

As usually defined, the GI50 is the concentration that inhibits growth by half. A word on the IC50: it is the concentration that inhibits the measured activity by half.

hERG potassium channel, sequence (Q12809 whole entry): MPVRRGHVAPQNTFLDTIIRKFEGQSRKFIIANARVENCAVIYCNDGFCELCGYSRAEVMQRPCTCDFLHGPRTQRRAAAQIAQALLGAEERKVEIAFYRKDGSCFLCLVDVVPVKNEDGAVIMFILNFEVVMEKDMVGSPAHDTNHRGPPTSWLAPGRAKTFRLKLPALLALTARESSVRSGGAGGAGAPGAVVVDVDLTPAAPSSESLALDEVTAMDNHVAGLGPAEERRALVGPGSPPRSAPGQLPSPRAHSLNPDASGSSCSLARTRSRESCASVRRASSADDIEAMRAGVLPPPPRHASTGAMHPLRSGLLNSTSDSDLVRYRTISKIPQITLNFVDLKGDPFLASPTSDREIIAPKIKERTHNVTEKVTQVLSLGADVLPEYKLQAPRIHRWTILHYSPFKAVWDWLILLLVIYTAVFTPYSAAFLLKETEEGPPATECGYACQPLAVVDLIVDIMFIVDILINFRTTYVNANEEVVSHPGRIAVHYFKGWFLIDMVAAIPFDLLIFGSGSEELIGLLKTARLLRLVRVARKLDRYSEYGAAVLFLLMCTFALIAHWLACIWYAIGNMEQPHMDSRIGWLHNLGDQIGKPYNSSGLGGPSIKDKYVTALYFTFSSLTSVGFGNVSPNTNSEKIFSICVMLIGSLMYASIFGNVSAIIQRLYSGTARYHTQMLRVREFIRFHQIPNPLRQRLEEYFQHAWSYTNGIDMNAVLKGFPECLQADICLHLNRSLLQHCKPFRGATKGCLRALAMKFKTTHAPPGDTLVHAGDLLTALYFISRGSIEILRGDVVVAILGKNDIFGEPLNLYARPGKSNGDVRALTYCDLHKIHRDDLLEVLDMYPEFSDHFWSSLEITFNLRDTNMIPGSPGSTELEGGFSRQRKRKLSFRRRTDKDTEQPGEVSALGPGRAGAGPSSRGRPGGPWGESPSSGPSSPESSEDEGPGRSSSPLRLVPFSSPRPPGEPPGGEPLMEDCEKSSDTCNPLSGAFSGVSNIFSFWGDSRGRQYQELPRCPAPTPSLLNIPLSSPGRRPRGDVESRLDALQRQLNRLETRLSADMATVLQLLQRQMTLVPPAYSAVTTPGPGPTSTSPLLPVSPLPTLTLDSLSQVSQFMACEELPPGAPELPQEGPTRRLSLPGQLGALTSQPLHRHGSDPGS

`CC(C)C[C@H](NC(=O)CNC(=O)c1cc(Br)ccc1Cl)B1OC(=O)c2ccccc2O1` [drawing 39]: the GI50 in series [1] was 0.00209 µM; in series [2] it was 0.00619 µM.

`CC(C)C[C@H](NC(=O)CNC(=O)c1cc(Cl)ccc1Cl)B1OC(=O)[C@@H](c2ccccc2)O1` [drawing 43]: the GI50 in series [1] was determined as 0.0186 µM; in series [2] it was 0.0216 µM.

As to `CC(C)C[C@H](NC(=O)CNC(=O)c1cc(Br)ccc1Cl)B1OC(=O)[C@@H](c2ccccc2)O1` [compound 8b, 2-chloro-5-bromo-N-[2-({(1R)-3-methyl-1-[(5R)-4-oxo-5-phenyl-1,3,2-dioxaborolan-2-yl]butyl}amino)-2-oxoethyl]benzamide], the “stability under high-temperature and high-humidity accelerated test condition” value in series [3] is “better stabilities”. For the same compound, the “Female Suvival” value was 6 in the series on SD rats (dose 1, 0.001108 mmol/kg single intragastric dose, 6 female rats, 14 days observation); 6 with SD rats (setting [5]); 6 with SD rats (dose 3, 0.002216 mmol/kg single intragastric dose, 6 female rats, 14 days observation); 4 in the series with SD rats (setting [7]). The “Male Suvival” value was 6 with SD rats (dose 1, 0.001108 mmol/kg single intragastric dose, 6 male rats, 14 days observation); 6 with SD rats (setting [6]); 6 with SD rats (dose 3, 0.002216 mmol/kg single intragastric dose, 6 male rats, 14 days observation); 6 with SD rats (setting [8]). The “Female Death” value in the series on SD rats (setting [5]) was 0; in the series with SD rats (setting [7]) it was 2; in the series on SD rats (female, rat, in vivo, 0.001108 mmol/kg, 14 days), 0; in the series with SD rats (female, rat, in vivo, 0.002216 mmol/kg, 14 days) it was 0. Also, the “Male Death” value is listed as 0 in the series on SD rats (setting [6]); 0 in the series on SD rats (setting [8]); 0 in the series on SD rats (male, rat, in vivo, 0.001108 mmol/kg, 14 days); 0 with SD rats (male, rat, in vivo, 0.002216 mmol/kg, 14 days). Besides, the maximum tolerance dose in the series with SD rats (female rats, single intragastric dose) was 0.002216 mmol/kg. Further, the “inhibitory effect on the hERG potassium channel (judged by general standard)” value against hERG potassium channel is on record as “no inhibitory effect”. Also, the IC50 on hERG potassium channel is > 30000 nM. In addition, the “inhibition of tumor growth (in words)” value in series [4] (stronger than 8l, MLN9708, MLN2238 (p<0.01)) was “significantly inhibited tumor growth”. For the same compound, the “Tumor weight” value in series [4] (after the 18th day, X ± SD) is listed as 0.028 ± 0.025 g.

With `CC(C)C[C@H](NC(=O)CNC(=O)c1cc(Cl)ccc1Br)B1OCCNCCO1` [drawing 42], the values for the GI50 in series [1] and in series [2] were 0.00816 µM and 0.006 µM, respectively.

On to `CC(C)C[C@H](NC(=O)CNC(=O)c1cc(Br)ccc1Cl)B1OC(=O)c2ccccc2O1` [compound 8a], for which, in series [3], the “stability under high-temperature and high-humidity accelerated test condition” value is recorded as “better stabilities”. Besides, the “hERG current inhibition ratio %” value at hERG potassium channel (0.3 μM) is 1.47% ±; on hERG potassium channel (1 μM), 5.53% ±; on hERG potassium channel (3 μM), 4.36% ±; at hERG potassium channel (10 μM) it was 11.24% ±; on hERG potassium channel (30 μM), 7.86% ±. For the same compound, the “inhibitory effect on the hERG potassium channel (judged by general standard)” value against hERG potassium channel is listed as “no inhibitory effect”. At hERG potassium channel, the IC50 was > 30000 nM.

With `CC(C)C[C@H](NC(=O)CNC(=O)c1cc(Br)ccc1Cl)B1OC(=O)[C@@H](c2ccccc2)O1` [drawing 40], the GI50 in series [1] worked out at 0.00275 µM; in series [2], 0.00598 µM.

The values above are taken from US11414437B2, “Borate compound, and synthesis method therefor and uses thereof” (CHENGDU ORIGIN BIOTECHNOLOGY LIMITED COMPANY, priority 2017, dated 2022).
